One block for each compound: values may come before it.
Assays:
[1] = solubility in mixtures of polar organic solvents with water; assay type: physicochemical
Text: It has recently been discovered that the (S)-epimer of gemcitabine-[phenyl-benzoxy-L-alaninyl)]-phosphate has sufficient solubility in mixtures of a number of polar organic solvents with water to render it suitable for formulation and administration as a therapeutic agent. […] In certain solvent mixtures the difference in solubility between the (S)-epimer and the (R)-epimer is over 100 fold. It is expected therefore that more clinically effective, practical and patient friendly administration methods can be developed using the (S)-epimer than can be developed using the (R)-epimer or using the mixture. It is thus desirable to be able to provide gemcitabine-[phenyl-benzoxy-L-alaninyl)]-(S)-phosphate in substantially diastereoisomerically pure form.

[2] = test system: isolated human hepatic cells; test: half-life on incubation with isolated human hepatic cells; assay type: in vitro ADME
Text: The longer half-life associated with (R)-isomer indicates a lower intrinsic clearance and should result in a different pharmacokinetic and pharmacodynamic profile to the (S)-isomer which may offer some benefits.

solubility in water = assay type: physicochemical; conditions: regardless of salt content or pH
Method: NUC-1031 is extremely lipophillic and thus poorly water soluble (by calculation: <0.1 mg/mL), and the ionisable moieties have calculated pKas which lie out-side the pH range suitable for parenteral administration. […] It also has implications for the development of efficient manufacturing processes which will allow NUC-1031 to be produced cost effectively.

solubility relative to the (S)-epimer ([1]; mixtures of polar organic solvents with water): considerably lower | half-life relative to that of the (S)-epimer [2]: four times
SMILES: C[C@H](N[P@@](=O)(OC[C@H]1O[C@@H](n2ccc(N)nc2=O)C(F)(F)C1O)Oc1ccccc1)C(=O)OCc1ccccc1 (stereo partly drawn) [(R)-epimer]

difference in solubility between the (S)-epimer and the (R)-epimer ([1]; in certain solvent mixtures (polar organic solvents with water), (S)-epimer over (R)-epimer): over 100 fold
SMILES: C[C@H](N[P@](=O)(OC[C@H]1O[C@@H](n2ccc(N)nc2=O)C(F)(F)C1O)Oc1ccccc1)C(=O)OCc1ccccc1 (stereo partly drawn) [(S)-epimer]

solubility in water (solubility in water): essentially insoluble in water
SMILES: C[C@H](NP(=O)(OC[C@H]1O[C@@H](n2ccc(N)nc2=O)C(F)(F)C1O)Oc1ccccc1)C(=O)OCc1ccccc1 (stereo partly drawn) [NUC-1031, 2′-deoxy-2′,2′-difluoro-D-cytidine-5′-O-[phenyl(benzoxy-L-alaninyl)] phosphate]
